Data on 2 sequences can be found in patent US8012944B2, “Method for treating cancer using IAP antisense oligomer and chemotherapeutic agent” (Pharmascience Inc., priority 2003, dated 2011).

Holding throughout (type): cell-based, human
Data set [1] has as its system HIAP1 mRNA. The experiment in a line: HIAP1 mRNA in SF295 cells, basal conditions (TaqMan). Also on record: decrease of HIAP1 mRNA compared to mock or scrambled survivin control: concentration or dose not given beside the values. Conditions: for HIAP1 mRNA levels (in words): SF295 cells (FIG. 21). On the procedure:
RNA was extracted from cells lysed in RLT buffer (QIAGEN, Valencia, Calif.), and purified using QIAGEN RNeasy columns/kits. Real-time quantitative PCR was performed on a Perkin-Elmer ABI 7700 Prism PCR machine. RNA was reverse transcribed and amplified according to the TaqMan Universal PCR Master Mix protocol of PE Biosystems, using primers and probes designed to specifically recognize XIAP, HIAP1, survivin, or GAPDH. For human survivin, the forward primer was 5′-[…]-3′ (SEQ ID NO: 263), the reverse primer was 5′-GAAAGGAAAGCGCAACCG-3′ (SEQ ID NO: 264), and the probe was 5′-(FAM)[…](TAMRA)-3′ (SEQ ID NO: 265). For human HIAP1, the forward primer was 5′-[…]-3′ (SEQ ID NO: 266), the reverse primer was 5′-[…]-3′ (SEQ ID NO: 267), and the probe was 5′-(FAM)[…](TAMRA)-3′ (SEQ ID NO: 268). For human XIAP, the forward primer was 5′-[…]-3′ (SEQ ID NO: 269), the reverse primer was 5′-[…]-3′ (SEQ ID NO: 270), and the probe was 5′-(FAM)[…](TAMRA)-3′ (SEQ ID NO: 271). For human GAPDH, the forward primer was 5′-GAAGGTGAAGGTCGGAGTC-3′ (SEQ ID NO: 272), the reverse primer was 5′-GAAGATGGTGATGGGATTC-3′ (SEQ ID NO: 273), and the probe was 5′-(JOE)[…](TAMRA)-3′ (SEQ ID NO: 274). FAM is 6-carboxyfluoroscein, JOE is 6-carboxy-4,5-dichloro-2,7-dimethoxyfluoroscein, and TAMRA is 6-carboxy-N,N,N′,N′-tetramethylrhodamine. FAM and JOE are 5′ reporter dyes, while TAMRA is a 3′ quencher dye.
Relative quantification of gene expression was performed as described in the PE Biosystems manual using GAPDH as an internal standard. The comparative Ct (cycle threshold) method was used for relative quantitation of IAP mRNA levels compared to GAPDH mRNA levels. Briefly, real-time fluorescence measurements were taken at each PCR cycle and the threshold cycle (Ct) value for each sample was calculated by determining the point at which fluorescence exceeded a threshold limit of 30 times the baseline standard deviation. The average baseline value and the baseline SD are calculated starting from the third cycle baseline value and stopping at the baseline value three cycles before the signal starts to exponentially rise. The PCR primers and/or probes for the specific IAPs were designed to span at least one exon-intron boundary separated by 1 kb or more of genomic DNA, to reduce the possibility of amplifying and detecting genomic DNA contamination. The specificity of the signal, and possible contamination from DNA, were verified by treating some RNA samples with either DNase or RNase, prior to performing the reverse transcription and PCR reaction steps.
A library of 15 HIAP1 antisense nucleobase oligomers as oligonucleotides was screened for protein knock-down by western blot analysis and for RNA knock-down by TaqMan, using the primers and probes described in Example 3, above, under two different conditions. HIAP1 RNA levels may be detected using standard Northern blot analyses or RT-PCR techniques. The antisense oligonucleotides were administered to cells under basal conditions or under cycloheximide-induction conditions (24 hour treatment with sub-toxic doses). Cycloheximide (CHX) can lead to a 10- to 200-fold induction of HIAP1 mRNA depending on the cell line treated. […] This effect of CHX is via two distinct mechanisms of action. First, CHX activates NFkB, a known transcriptional inducer of HIAP1, by blocking the de novo synthesis of a labile protein, IkB, which is an inhibitor of NFkB. This effect is mimicked by puromycin, another protein synthesis inhibitor, and by TNF-alpha, which induces a signaling cascade leading to the phosphorylation, ubiquination, and degradation of IkB.
SF295 glioblastoma cells were transfected with lipofectin and oligonucleotide (scrambled survivin, no oligonucleotide, antisense APO 1 to APO 15) or left untreated. […]
A general note: Quantitative PCR measures a nucleic acid by following its amplification.

The test system of another data set is SF295 cells. The experiment in a line: Cytotoxicity of HIAP1 oligonucleotides measured by total protein. Conditions: FIG. 23. The text has this:
FIG. 23 is a graph showing the effects of HIAP1 oligonucleotides on cytotoxicity, as measured by total protein.

For the next data set, the system named is survivin protein. The experiment in a line: Survivin protein after APO 2 treatment. Particulars: after oligo treatment.
The subject of a further data set is HIAP1 protein. The experiment in a line: HIAP1 protein in cycloheximide-induced SF295 cells (western blot). The source says: HIAP1 was detected on a western immunoblot using an affinity-purified anti-rat HIAP1 rabbit polyclonal antibody as a primary antibody and was detected by ECL (Amersham) on X-ray film with a secondary horseradish-peroxidase-conjugated anti-rabbit Ig antibody and a chemiluminescent substrate. The anti-HIAP1 polyclonal antibody is raised against a GST-fusion of the rat HIAP1. This antibody cross-reacts with both human and murine HIAP1 and HIAP2.
(§1) The effect of HIAP1 antisense nucleobase oligomers on HIAP1 protein and mRNA expression was also examined in cells induced to express HIAP1. SF295 cells were transfected with oligonucleotides, or were mock transfected. The transfected cells were then treated with 10 μg/ml cycloheximide for 24 hours to induce 70 kDa HIAP1 mRNA and protein. Protein levels were measured by western blot analysis with an anti-HIAP1 polyclonal antibody, and normalized against actin protein in a re-probing of the same blots. The densitometric scan results were plotted against the mock results (set at 100%) in FIG. 22B. […] The transfection process itself (e.g., mock or scrambled survivin) induces HIAP1 protein compared to the untreated sample as shown on the western immunoblot.
For orientation: Immunoblotting shows a protein as a band on a membrane.

The subject of data set [2] is HIAP1 mRNA. The experiment in a line: HIAP1 mRNA in SF295 cells under cycloheximide induction (TaqMan). On the procedure: as §1
Controls for this experiment were three oligonucleotides for APO 2: one scrambled sequence (same base composition but random order, 5′-AAGGGCGGCGGAGTGAGAC-3′; SEQ ID NO: 297), one reverse polarity (same base composition, same sequential order but in the opposite direction, 5′-AGAGGACGGAGTCGGAGGC-3′; SEQ ID NO: 298), and one mismatch sequence (containing four base mismatches out of 19 bases, 5′-CGGAGCGTGAGGATGGAGA-3′; SEQ ID NO: 299).

With “TCTCACAGACGTTGGGCTT (chemistry not given here) [APO 6]”, the “HIAP1 mRNA levels (in words)” value in the data set with HIAP1 mRNA [1] was “stress-induced increase in HIAP1 mRNA”. The “toxicity seen as general decrease in total protein” value in the data set with SF295 cells is “evidence of toxicity”.

With “CGGAGGCTGAGGCAGGAGA (CGGAGGCNGAGGCAGGAGA; chemistry not given here) [APO 2]”, in the data set with HIAP1 mRNA [1], the “HIAP1 mRNA levels (in words)” value is reported as “did not cause a stress-induced increase in HIAP1 mRNA”. In addition, in the data set on HIAP1 mRNA [1] (SF295 cells, six hours after transfection), the “decrease of HIAP1 mRNA compared to mock or scrambled survivin control” value is approximately 50%. Also, the “loss of survivin protein (specificity)” value with survivin protein was “did not see any loss of survivin protein”. Moreover, the “activity in the HIAP1 protein and mRNA assays” value with HIAP1 protein was “high activity, or had significant activity in both the protein and mRNA assays”. The “effect on HIAP1 mRNA (and protein) under CHX induction (in words)” value in the data set on HIAP1 mRNA [2] is “greatest block of CHX-induced upregulation of HIAP1 mRNA and protein”. Moreover, the “decrease in HIAP1 mRNA compared to scrambled survivin control” value in the data set on HIAP1 mRNA [2] (cycloheximide induction conditions, 6 hours after transfection) amounted to 50%.
